Measured values taken from PMC8217266 (Clinical Pharmacology and Therapeutics, 2021).

What was measured:
[1] = molecular target: T1, human MATE1 (Homo sapiens, UniProt Q96FL8)
T1 sequence (Q96FL8 1-570): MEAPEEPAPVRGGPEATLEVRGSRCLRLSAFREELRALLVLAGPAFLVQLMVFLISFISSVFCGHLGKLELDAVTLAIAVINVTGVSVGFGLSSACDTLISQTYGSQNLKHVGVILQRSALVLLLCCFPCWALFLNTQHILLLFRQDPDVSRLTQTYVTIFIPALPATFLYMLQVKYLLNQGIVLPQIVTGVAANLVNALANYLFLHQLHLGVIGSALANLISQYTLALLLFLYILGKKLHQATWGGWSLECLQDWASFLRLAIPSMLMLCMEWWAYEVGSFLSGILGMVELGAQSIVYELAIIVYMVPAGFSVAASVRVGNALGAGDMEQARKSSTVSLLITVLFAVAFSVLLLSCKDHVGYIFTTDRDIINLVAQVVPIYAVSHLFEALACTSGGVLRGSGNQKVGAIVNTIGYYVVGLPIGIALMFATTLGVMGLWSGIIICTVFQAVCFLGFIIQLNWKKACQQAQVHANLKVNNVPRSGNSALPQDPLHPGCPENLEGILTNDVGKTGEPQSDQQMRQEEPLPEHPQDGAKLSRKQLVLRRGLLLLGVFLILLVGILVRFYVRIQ

[2] = molecular target: T2, human OAT3 (Homo sapiens, UniProt Q8TCC7); assay: cell-based
T2 sequence (Q8TCC7 1-542): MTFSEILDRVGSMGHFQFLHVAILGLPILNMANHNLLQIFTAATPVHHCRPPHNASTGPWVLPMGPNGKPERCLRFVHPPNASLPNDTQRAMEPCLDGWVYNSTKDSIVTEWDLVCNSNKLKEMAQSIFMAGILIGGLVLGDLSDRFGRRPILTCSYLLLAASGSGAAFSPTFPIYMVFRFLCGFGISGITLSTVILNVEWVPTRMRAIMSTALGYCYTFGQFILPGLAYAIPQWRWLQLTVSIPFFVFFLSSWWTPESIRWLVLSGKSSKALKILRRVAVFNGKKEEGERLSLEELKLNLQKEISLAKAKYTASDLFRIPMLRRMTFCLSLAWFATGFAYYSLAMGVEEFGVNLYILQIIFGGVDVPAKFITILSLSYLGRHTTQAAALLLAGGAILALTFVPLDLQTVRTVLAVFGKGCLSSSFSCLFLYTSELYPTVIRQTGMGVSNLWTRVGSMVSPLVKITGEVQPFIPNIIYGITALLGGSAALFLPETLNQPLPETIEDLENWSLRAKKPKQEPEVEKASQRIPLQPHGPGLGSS

[3] = molecular target: T1, human MATE1; assay: cell-based
[4] = molecular target: T3, human OCT2 (Homo sapiens, UniProt O15244); assay: cell-based; settings: IC50 OCT2, experimental, mean ± SD; substrate metformin
T3 sequence (O15244 1-555): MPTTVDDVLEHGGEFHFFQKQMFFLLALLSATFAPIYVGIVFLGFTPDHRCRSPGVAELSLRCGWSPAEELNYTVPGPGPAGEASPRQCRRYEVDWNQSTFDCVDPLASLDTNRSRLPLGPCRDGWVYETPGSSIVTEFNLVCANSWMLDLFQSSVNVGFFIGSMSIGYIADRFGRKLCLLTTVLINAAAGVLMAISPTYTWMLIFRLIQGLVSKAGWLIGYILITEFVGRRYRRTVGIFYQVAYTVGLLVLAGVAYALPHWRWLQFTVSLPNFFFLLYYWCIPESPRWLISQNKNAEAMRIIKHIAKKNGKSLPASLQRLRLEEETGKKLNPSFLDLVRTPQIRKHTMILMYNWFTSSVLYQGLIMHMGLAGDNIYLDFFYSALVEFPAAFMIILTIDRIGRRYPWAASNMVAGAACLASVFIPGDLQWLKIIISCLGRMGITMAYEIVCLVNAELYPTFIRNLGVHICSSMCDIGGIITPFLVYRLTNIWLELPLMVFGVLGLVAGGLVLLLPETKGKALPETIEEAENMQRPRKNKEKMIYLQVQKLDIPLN

[5] = molecular target: T4, human OATP1B1 (Homo sapiens, UniProt Q9Y6L6); settings: for potency difference of the inhibitor for [3H]-EG vs [3H]-ES as OATP1B1 probes: inhibits EG at one-tenth (or lower) the concentration that inhibits ES
T4 sequence (Q9Y6L6 1-691): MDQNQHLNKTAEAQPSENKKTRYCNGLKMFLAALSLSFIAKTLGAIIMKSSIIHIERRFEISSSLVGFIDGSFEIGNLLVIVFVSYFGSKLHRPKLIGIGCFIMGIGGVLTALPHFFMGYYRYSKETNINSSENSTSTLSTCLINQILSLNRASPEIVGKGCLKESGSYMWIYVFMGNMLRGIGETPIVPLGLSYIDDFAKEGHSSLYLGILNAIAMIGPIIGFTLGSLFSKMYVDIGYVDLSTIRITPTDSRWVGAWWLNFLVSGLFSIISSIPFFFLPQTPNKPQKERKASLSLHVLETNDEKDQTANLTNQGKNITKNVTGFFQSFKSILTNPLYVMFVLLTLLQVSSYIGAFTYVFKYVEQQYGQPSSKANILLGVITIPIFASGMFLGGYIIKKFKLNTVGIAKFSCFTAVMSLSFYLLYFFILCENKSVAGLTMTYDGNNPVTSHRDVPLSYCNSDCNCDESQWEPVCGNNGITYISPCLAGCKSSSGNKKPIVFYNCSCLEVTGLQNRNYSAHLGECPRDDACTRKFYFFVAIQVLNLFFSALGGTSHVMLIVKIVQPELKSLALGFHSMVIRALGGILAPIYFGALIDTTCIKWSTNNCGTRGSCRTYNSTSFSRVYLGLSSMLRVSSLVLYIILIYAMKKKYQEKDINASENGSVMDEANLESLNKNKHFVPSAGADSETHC

SMILES	Cu,max/IC50 MATE1 [1]	IC50 [2] [µM]	IC50 [3] [µM]	IC50 [4] [µM]	Iu,in,max/IC50 OATP1B1 ([5]; human)	potency difference of the inhibitor for [3H]-EG vs [3H]-ES as OATP1B1 probes [5] [fold]
CCCc1nn(C)c2c(=O)[nH]c(-c3cc(S(=O)(=O)N4CCN(C)CC4)ccc3OCC)nc12 [Sildenafil]	0.02	20.5 ± 3.1	2.4 ± 0.1	68 ± 20.1	–	–
CCOC(=O)c1c(CSc2ccccc2)n(C)c2cc(Br)c(O)c(CN(C)C)c12 [Umifenovir (Arbidol), Umifenovir]	0.13	58.6 ± 21.9	0.7 ± 0.2	14.9 ± 4.9	0.93	–
N#CC[C@H](C1CCCC1)n1cc(-c2ncnc3[nH]ccc23)cn1 [Ruxolitinib]	0.04	6.1 ± 0.6	0.7 ± 0.01	10.7 ± 3.7	–	–
CC(C)CN(C[C@@H](O)[C@H](Cc1ccccc1)NC(=O)O[C@H]1CO[C@H]2OCC[C@H]21)S(=O)(=O)c1ccc(N)cc1 [Darunavir]	–	37.9 ± 9.5	43.8 ± 14.4	–	–	> 10
CCC(CC)COC(=O)[C@H](C)N[P@](=O)(OC[C@H]1O[C@@](C#N)(c2ccc3c(N)ncnn23)[C@H](O)[C@@H]1O)Oc1ccccc1 [Remdesivir]	–	14 ± 1.7	0.4 ± 0.1	–	–	> 10
